Laboratory results taken from patent US20190242874A1, “HUMAN EPITHELIAL CELL LINE FOR 3-D MODELIZING OF CANCER AND TREATMENT THEREOF” (GALDERMA RESEARCH & DEVELOPMENT, priority 2011, published 2019).

How the values were obtained:
[1] = test system: SHH/PTCH signaling pathway; experiment: Response of the immortalized keratinocyte cell line to SHH/PTCH pathway agonist and antagonists; format: cell-based, human; settings: conclusion statement; no concentration given
Experimental: Purmorphamine (SMO agonist) and GDC-0449 (SMO antagonist) were diluted in DMSO at stock concentrations of 50 mM and 10 mM, respectively. To avoid side effects and toxicity, the final concentration of DMSO was fixed to 0.1% DMSO.
Theses cells can be expanded in a simple defined medium and they can grow easily due to immortalization. This tool is 3D organotypic culture system to evaluate the efficacy of anti-tumoral molecules specifically targeting inappropriate activation of the SHH/PTCH pathway occurring in BCC but also in numerous non BCC cancers including other cancer implicating inappropriate activation of the SHH/PTCH pathway. Assessment of inhibitor efficacy is applicable in the long term by skin regeration in vivo using animal vector including the mouse or the mini pig sytems.

[2] = test system: KNBCCS6 E6/E7 immortalized keratinocytes; experiment: Organotypic skin reconstruction: epidermal invasion of KNBCCS6 E6/E7 keratinocytes into dermal equivalent of NBCCS6 fibroblasts (histology); format: cell-based, human; settings: 10 mM inhibitor, 0.1% DMSO, added 24 hrs before raising at air-liquid interface; compared with FIG. 4A control (FIG. 4B, 4C)
Experimental: Organotypic skin reconstruction using KNBCCS E6/E7 was performed using standard protocols as described in (Bernerd et al., 2001). In brief 10^6 NBCCS6 primary fibroblasts cultured in standard culture medium as described above were embeded in a bovine collagen I lattice. After contraction (48 hrs) lattices were fixed on platic using a collagen glue, KNBCCS6 were then seeded (50 000 cells per lattice) within a stainless ring, left for 6 days in immersion; the day 6) before emersion (day 7), mounts were treated with appropriate concentration of SHH:PTCH pathway inhibitor with a final a 0.1% DMSO concentration until the end of experiment. Control cultures were treated with 0.1% DMSO. After 7 days of emersion at air-liquid interface, cultures were harvested for subsequent analyses including histology and assessment of tacer/reporter gene activity. (FIG. 3 and FIG. 4)
FIGS. 4B, 4C show the same as FIG. 4A, except that organotypic skin cultures were grown 24 hrs before being raised at air-liquid interface in the presence ce of […] of GDC-0449 (B) or […] (SANT1) SHH/PTCH pathway inhibitors.

With `CS(=O)(=O)c1ccc(C(=O)Nc2ccc(Cl)c(-c3ccccn3)c2)c(Cl)c1` [GDC-0449] the “effect on SHH/PTCH signaling pathway in immortalized human keratinocyte cell line” value (from here on “effect on SHH/PTCH signaling pathway”) [1] was “inhibition of the activation” and the “size and frequency of epidermal invasion” value [2] was “substantially decreased”.

`c1ccc2c(Oc3nc(Nc4ccc(N5CCOCC5)cc4)c4ncn(C5CCCCC5)c4n3)cccc2c1` [purmorphamine, Purmorphamine] was tested, and the “effect on SHH/PTCH signaling pathway” value [1] was “activation”.

`Cc1nn(-c2ccccc2)c(C)c1/C=N/N1CCN(Cc2ccccc2)CC1` [SANT1] was tested, and the “effect on SHH/PTCH signaling pathway” value [1] was “inhibition of the activation” and the “size and frequency of epidermal invasion” value [2] was “substantially decreased”.
